Assay results published in US20030073850A1, “4-Imidazole derivatives of benzyl and restricted benzyl sulfonamides, sulfamides, ureas, carbamates, and amides and their use” (priority 1998, published 2003).
pKi: −log10 of the molar value. Where a name gives a salt, the structure may show the parent alone. Read-outs that look alike come from different tables or passages of the source.

Legend:
[1] = target: T1, α1d (rat receptor expressed in mouse fibroblasts) (Rattus norvegicus, UniProt P23944); assay: Radioligand binding, [3H]-prazosin, α1d
T1 construct: expressed in transfected cells; host or cells: mouse fibroblasts
T1 sequence (P23944 1-561): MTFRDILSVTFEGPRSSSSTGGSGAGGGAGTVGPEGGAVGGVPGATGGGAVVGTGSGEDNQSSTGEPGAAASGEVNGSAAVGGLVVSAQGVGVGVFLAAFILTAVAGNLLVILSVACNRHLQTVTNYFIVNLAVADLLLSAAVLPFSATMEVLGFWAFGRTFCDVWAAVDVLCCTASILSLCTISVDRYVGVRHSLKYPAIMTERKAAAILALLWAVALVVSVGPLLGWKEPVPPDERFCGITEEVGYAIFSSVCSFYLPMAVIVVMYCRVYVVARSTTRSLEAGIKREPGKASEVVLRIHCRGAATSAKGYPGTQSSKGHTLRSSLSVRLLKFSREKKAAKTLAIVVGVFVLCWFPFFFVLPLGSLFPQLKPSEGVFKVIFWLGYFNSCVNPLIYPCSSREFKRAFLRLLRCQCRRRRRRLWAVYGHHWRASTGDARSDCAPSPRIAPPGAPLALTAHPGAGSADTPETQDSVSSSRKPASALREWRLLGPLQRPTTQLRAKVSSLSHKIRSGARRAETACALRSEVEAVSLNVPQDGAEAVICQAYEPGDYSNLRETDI
Description: (§1) For purposes of discussing a, adrenoceptor subtypes, the IUPHAR convention of using lower case letters to define molecular clones and upper case letters to indicate pharmacologically defined adrenoceptors has been followed. Compounds of formula I were evaluated in radioligand binding assays specific for α1A (rat submaxillary gland), α1b (hamster receptor expressed in mouse fibroblasts) and α1d (rat receptor expressed in mouse fibroblasts) using [^3H]-prazosin as the radioligand as described in Knepper, et al. J. Pharm.

[2] = target: T2, α1b (hamster receptor expressed in mouse fibroblasts) (Mesocricetus auratus, UniProt P18841); assay: Radioligand binding, [3H]-prazosin, α1b
T2 construct: expressed in transfected cells; host or cells: mouse fibroblasts
T2 sequence (P18841 1-515): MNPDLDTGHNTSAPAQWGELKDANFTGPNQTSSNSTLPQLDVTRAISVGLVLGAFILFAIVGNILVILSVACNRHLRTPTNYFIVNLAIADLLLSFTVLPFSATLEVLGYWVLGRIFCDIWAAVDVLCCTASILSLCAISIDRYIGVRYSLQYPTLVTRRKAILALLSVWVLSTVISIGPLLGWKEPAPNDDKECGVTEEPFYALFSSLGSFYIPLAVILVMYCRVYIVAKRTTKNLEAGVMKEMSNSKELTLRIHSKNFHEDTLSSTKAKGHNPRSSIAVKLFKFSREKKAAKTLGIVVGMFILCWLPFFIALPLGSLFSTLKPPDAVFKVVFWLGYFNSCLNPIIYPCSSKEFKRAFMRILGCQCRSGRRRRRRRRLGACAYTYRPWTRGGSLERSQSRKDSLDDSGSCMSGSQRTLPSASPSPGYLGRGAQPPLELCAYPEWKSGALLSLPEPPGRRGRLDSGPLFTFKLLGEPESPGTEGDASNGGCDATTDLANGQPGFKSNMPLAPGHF
Description: as §1

[3] = target: T3, α1A (rat submaxillary gland) (Rattus norvegicus, UniProt P43140); assay: Radioligand binding, [3H]-prazosin, α1A
T3 construct: α1A (rat submaxillary gland); from tissue; host or cells: rat submaxillary gland
T3 sequence (P43140 1-466): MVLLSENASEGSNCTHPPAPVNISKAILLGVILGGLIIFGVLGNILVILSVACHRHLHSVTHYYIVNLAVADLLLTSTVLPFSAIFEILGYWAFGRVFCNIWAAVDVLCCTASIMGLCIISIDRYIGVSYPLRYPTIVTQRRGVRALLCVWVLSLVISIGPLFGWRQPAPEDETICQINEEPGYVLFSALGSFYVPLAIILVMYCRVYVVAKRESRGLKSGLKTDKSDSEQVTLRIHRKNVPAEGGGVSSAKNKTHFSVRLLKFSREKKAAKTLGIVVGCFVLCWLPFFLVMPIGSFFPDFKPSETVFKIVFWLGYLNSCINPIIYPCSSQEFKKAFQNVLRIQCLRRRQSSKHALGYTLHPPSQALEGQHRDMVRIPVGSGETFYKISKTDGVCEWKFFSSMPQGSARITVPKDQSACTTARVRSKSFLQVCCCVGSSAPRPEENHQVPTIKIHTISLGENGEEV
Description: as §1

[4] = rat receptor expressed in mouse fibroblasts, [3H]-prazosin, read-out: Radioligand Binding Ki α1d (Rat)
[5] = hamster receptor expressed in mouse fibroblasts, [3H]-prazosin, read-out: Radioligand Binding Ki α1b (Hamster)

| pKi [2, 5] | SMILES | pKi [1, 4] | melting point | pKi [3] | pKi [1] | pKi [2] |
| --- | --- | --- | --- | --- | --- | --- |
| 5.00 | CCS(=O)(=O)Nc1cccc2c1OCCC2c1c[nH]cn1 (stereo not drawn) [Example 79, N-[4-(1H-imidazol-4-yl)-3,4-dihydro-2H-chromen-8-yl]ethanesulfonamide] | 5.00 |  | 6.20 |  |  |
| 5.00 | CCS(=O)(=O)Nc1cc(F)cc2c1CCCC2c1c[nH]cn1 (stereo not drawn) [Example 131, N-[3-fluoro-5-(1H-imidazol-4-yl)-5,6,7,8-tetrahydro-1-naphthalenyl]ethanesulfonamide] | 5.66 |  | 7.05 |  |  |
|  | C=C(c1cccc(NS(=O)(=O)CC(F)(F)F)c1)c1c[nH]cn1.O=C(O)/C=C\C(=O)O [Example 91, 2,2,2-trifluoro-N-{3-[1-(1H-imidazol-4-yl)vinyl]phenyl}ethanesulfonamide Maleate] |  | 149 to 153 °C | 5.82 | 5.00 | 5.00 |
|  | O=S(=O)(CC(F)(F)F)Nc1cccc2c1CCCC2c1c[nH]cn1 (single isomer, unassigned; (+)) [Example 36, (+)-N-[5,6,7,8-tetrahydro-5-(1H-imidazol-4-yl)-1-napbthalenyl]-2,2,2-trifluoroethanesulfonamide] | 5.00 | > 260 °C |  |  |  |
|  | CCS(=O)(=O)Nc1cccc2c1COC2c1c[nH]cn1.O=C(O)/C=C\C(=O)O (stereo not drawn) [Example 87, N-[1-(1H-imidazol-4-yl)-1,3-dihydro-2-benzofuran-4-yl]ethanesulfonamide Maleate] |  | 95 to 98 °C | 6.03 | 5.00 | 5.00 |
|  | CCS(=O)(=O)Nc1cc(C2CCCCC2)cc2c1CCCC2c1c[nH]cn1 (stereo not drawn) [Example 101, N-[3-cyclohexyl-5-(1H-imidazol-4-yl)-5,6,7,8-tetrahydro-1-naphthalenyl]ethanesulfonamide] |  | 207 to 209 °C | 6.57 | 6.35 | 6.05 |
|  | CC(C)(OC(=O)Nc1cccc2c1CCCC2c1c[nH]cn1)C(Cl)(Cl)Cl (stereo not drawn) [Example 122, 2,2,2-trichloro-1-dimethylethyl 5-(1H-imidazol-4-yl)-5,6,7,8-tetrahydro-1-naphthalenylcarbamate] |  |  | 5.99 | 5.90 | 5.00 |
| 5.00 | O=S(=O)(CC(F)(F)F)Nc1cccc2c1OCCC2c1c[nH]cn1 (single isomer, unassigned) [Example 88, 2,2,2-trifluoro-N-[4-(1H-imidazol-4-yl)-3,4-dihydro-2H-chromen-8-yl]ethanesulfonamide] | 5.00 |  | 6.24 |  |  |
| 5.00 | CN(C)S(=O)(=O)Nc1cccc2c1CCCC2c1c[nH]cn1 (stereo not drawn) [Example 111, N′-[5-(1H-imidazol-4-yl)-5,6,7,8-tetrahydro-1-naphthalenvyl]-N,N-dimethylsulfamide] | 5.80 | 208 to 210 °C | 6.24 |  |  |
| 5.00 | Cc1noc(C)c1S(=O)(=O)Nc1cccc2c1CCCC2c1c[nH]cn1 (stereo not drawn) [Example 61, N-[5-(1H-imidazol-4-yl)-5,6,7,8-tetrahydro-1-naphthalenyl]-3,5-dimethyl-4-isoxazolesulfonamide] | 5.00 |  |  |  |  |
|  | COC(=O)Nc1cccc2c1CCCC2c1c[nH]cn1 (stereo not drawn) [Example 119, methyl 5-(1H-imidazol-4-yl)-5,6,7,8-tetrahydro-1-naphthalenylcarbamate] |  |  |  | 5.52 | 5.00 |
| 5.00 | CCN(C(=O)Nc1cccc2c1CCCC2c1c[nH]cn1)C(C)C (stereo not drawn) [Example 118, N-ethyl-N′-[5-(1H-imidazol-4-yl)-5,6,7,8-tetrahydro-1-naphthalenyl]-N-isopropylurea] | 6.04 |  | 6.48 |  |  |
| 5.00 | CCOC(=O)Nc1cccc2c1CCCC2c1c[nH]cn1 (stereo not drawn) [Example 120, ethyl 5-(1H-imidazol-4-yl)-5,6,7,8-tetrahydro-1-naphthalenylcarbamate] | 5.54 |  | 6.79 |  |  |
|  | Cc1ccc(OC(=O)Nc2cccc3c2CCCC3c2c[nH]cn2)cc1 (stereo not drawn) [Example 124, 4-methylphenyl 5-(1H-imidazol-4-yl)-5,6,7,8-tetrahydro-1-naphthalenylcarbamate] |  |  | 6.35 | 6.10 | 5.83 |

| SMILES | pKi [2, 5] | pKi [1, 4] | melting point | pKi [3] | pKi [1] | pKi [2] |
| --- | --- | --- | --- | --- | --- | --- |
| CS(=O)(=O)Nc1ccc(O)c2c1CCCC2c1c[nH]cn1.O=C(O)/C=C\C(=O)O (stereo not drawn) [Example 24, N-[5,6,7,8-tetrahydro-4-hydroxy-5-(1H-imidazol-4-yl)-1-naphthalenyl]methanesulfonamide, Maleate] | 5.00 | 5.00 | 127 to 131 °C |  |  |  |
| CCS(=O)(=O)Nc1ccc(OC)c2c1CCCC2c1c[nH]cn1 (stereo not drawn) [Example 25, N-[5,6,7,8-tetrahydro-(1H-imidazol-4-yl)-4-methoxy-1-naphthalenyl]ethanesulfonamide, Maleate] | 5.00 | 5.00 |  |  |  |  |
| CCS(=O)(=O)Nc1cccc2c1SCCC2c1c[nH]cn1.O=C(O)/C=C\C(=O)O (stereo not drawn) [Example 89, N-[4-(1H-imidazol-4-yl)-3,4-dihydro-2H-thiochromen-8-yl]ethanesulfonamide Maleate] | 5.00 | 5.00 | 248 to 251 °C | 6.00 |  |  |
| CCS(=O)(=O)Nc1cccc(C(=C(C)C)c2c[nH]cn2)c1 [Example 94, N-{3-[1-(1H-imidazol-4-yl)-2-methyl-1-propenyl]phenyl}ethanesulfonamide] | 5.93 | 6.76 | 152 to 155 °C | 5.71 |  |  |
| CCS(=O)(=O)Nc1cccc2c1CCCC2c1c[nH]c(C)n1.O=C(O)/C=C\C(=O)O (stereo not drawn) [Example 84, N-[5-(2-methyl-1H-imidazol-4-yl)-5,6,7,8-tetrahydro-1-naphthalenyl]ethanesulfonamide, Maleate] | 5.00 | 5.00 | 73 to 77 °C | 6.10 |  |  |
| CCS(=O)(=O)Nc1cccc2c1CCCCC2c1c[nH]cn1.O=C(O)/C=C\C(=O)O (stereo not drawn) [Example 40, N-[5-(1H-imidazol-4-yl)-6,7,8,9-tetrahydro-5H-benzo[a]cyclohepten-1-yl]ethanesulfonamide, Maleate] | 5.00 | 5.00 | 155 to 156 °C |  |  |  |
